Broadly, the IC50 is the concentration at which inhibition is half-maximal.

Each structure is given as a SMILES string. Bounds are passed on as bounds.

For the first test, the target named is human P2X7 receptor (Homo sapiens, UniProt Q99572, R270H/Y155H). In words: Evaluation of human P2X7 receptor inhibitory activity (Yo-Pro uptake, BzATP stimulation, FLIPR TETRA). Format: cell-based. The settings on record: 1321N1 cells stably expressing human P2X7 receptor; BzATP stimulation, Yo-Pro uptake; read-out: IC50 (antagonistic activity for the human P2X7 receptor). The method, boiled down:
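1321N1 cells stably expressing human P2X7 (T606C/G952A SNP variant), in HBSS buffer pH 7.4-7.5 with Yo-Pro, stimulated with BzATP; compound added 8 min after agonist. Fluorescence followed for 20 min on FLIPR; max-minus-min change gave % inhibition, IC50 by logistic fit.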
`O=c1nc(Nc2cccc3c(=O)[nH]ccc23)n(Cc2cc(F)cc(F)c2)cc1F` [Compound I-0703]: the IC50 worked out at 16 nM. Regarding `COc1cn(Cc2ccccc2)c(Nc2cccc3c2CCO3)nc1=O` [Compound I-0120], the IC50 stood at 670 nM.

In the case of `COc1ccc(Nc2nc(=O)c(F)cn2Cc2ccc(F)c(Cl)c2)c(C)n1` [Compound I-1059], the IC50 worked out at 11 nM. In the case of `COc1cn(Cc2ccccc2C)c(Nc2cccc(C(F)(F)F)c2Cl)nc1=O` [Compound I-0014], the IC50 came out at 250 nM. As for `COc1cn(Cc2ccsc2)c(Nc2cc(C)c(C)cc2C)nc1=O` [Compound I-0738], the half-inhibitory concentration (IC50) stood at 3 nM.

The same test, now with this note: 1321N1 cells stably expressing human P2X7 receptor; BzATP stimulation, Yo-Pro uptake; read-out: IC50 (antagonistic activity for the human P2X7 receptor), class symbol.
For `COc1cn(Cc2ccccc2)c(Nc2cc(-c3nc4ncccc4o3)ccc2C)nc1=O` [Compound I-0416], the IC50 lay in the range of 10 to 100 nM. `COc1cn(Cc2ccccc2F)c(Nc2cc(C)c(Cl)cc2C)nc1=O` [Compound I-0167]: the half-inhibitory concentration (IC50) was in the range of 10 to 100 nM.

Turning to `COc1cn(Cc2ccc(F)c(Cl)c2)c(Nc2cc3[nH]ncc3cc2C)nc1=O` [Compound I-0492], the IC50 is below 10 nM.

As for `COc1cn(Cc2cc(F)cc(F)c2)c(Nc2cc(C)c(C)cc2C)nc1=O` [Compound I-0377], the IC50 is below 10 nM.

In the case of `COc1cn(Cc2ccccc2)c(Nc2cc(C)c(C)cc2C)nc1=O` [Compound I-0124], the IC50 is below 10 nM.

On to `COCc1cccc(Nc2nc(=O)c(OC)cn2Cc2ccc(F)c(Cl)c2)c1C` [Compound I-0353], for which the IC50 lay in the range of 10 to 100 nM. As to `COc1cn(Cc2ccc(F)cc2)c(Nc2cccc(N(C)C)c2C)nc1=O` [Compound I-0401], the IC50 lay in the range of 10 to 100 nM. On the same count and under the same terms, the value for `COc1cn(Cc2ccc(F)c(Cl)c2)c(Nc2cccc(OC(C)C)c2C)nc1=O` [Compound I-0515] was 10 to 100 nM. For the compound `COc1cn(Cc2ccc(F)c(Cl)c2)c(Nc2cc(CN3CCCC3)ccc2C)nc1=O` [Compound I-0524], the 50% inhibitory concentration (IC50) lay within 100 to 500 nM. For the compound `COc1cn(Cc2cc(F)cc(F)c2)c(Nc2cc(S(C)(=O)=O)c(C)cc2C)nc1=O` [Compound I-0551], the IC50 was 10 to 100 nM. Take `COc1cn(Cc2ccccc2)c(NC2CCc3ccccc32)nc1=O` (stereo not drawn) [Compound I-0073]: the IC50 was 500 to 1000 nM. For `Cc1cccc(C)c1Nc1nc(=O)c(F)cn1Cc1ccccc1` [Compound I-0153], the concentration for half-maximal inhibition (IC50) was 10 to 100 nM. In the case of `COc1cn(Cc2ccccc2)c(Nc2cc(F)ccc2C)nc1=O` [Compound I-0090], the IC50 fell in the range of 100 to 500 nM.

For `CCc1cc2c(cc1Nc1nc(=O)c(OC)cn1Cc1ccc(F)cc1)CCC2` [Compound I-0163], the IC50 is below 10 nM.

As for `COc1cn(Cc2ccccc2)c(Nc2cc(N3CCCS3(=O)=O)ccc2C)nc1=O` [Compound I-0070], the IC50 lay within 10 to 100 nM. On to `COc1cn(Cc2cccc(F)c2)c(Nc2cc(C)c(C)cc2C)nc1=O` [Compound I-0177], for which the IC50 was below 10 nM. Turning to `COc1cn(Cc2cc(F)cc(Cl)c2)c(Nc2cc(CO)c(C)cc2C)nc1=O` [Compound I-0578], the 50% inhibitory concentration (IC50) is below 10 nM.

The same test, now with this note: antagonistic activity for the human P2X7 receptor; read-out: IC50.
Take `COc1cn(Cc2cc(F)c(F)c(F)c2)c(Nc2cc3c(cc2C)OCC3)nc1=O` [Compound I-0866]: the half-inhibitory concentration (IC50) was below 10 nM. Take `COc1ccc(Nc2nc(=O)c(Cl)nn2Cc2cc(F)c(F)c(F)c2)c(C)c1` [Compound I-1265]: the half-inhibitory concentration (IC50) was 10 to 100 nM. For `CCc1cc(Cl)ccc1Nc1nc(=O)c(OC)cn1Cc1cc(F)cc(Cl)c1` [Compound I-0611], the half-inhibitory concentration (IC50) was 10 to 100 nM. Turning to `COc1cn(Cc2ccc(F)c(F)c2)c(Nc2cc(-n3cccc3)ccc2C)nc1=O` [Compound I-0653], the 50% inhibitory concentration (IC50) was below 10 nM. On the same count and under the same terms, the value for `Cc1ccc(CF)cc1Nc1nc(=O)c(F)cn1Cc1cc(F)c(F)c(F)c1` [Compound I-1231] was below 10 nM. Turning to `COc1cnc(Nc2cccc(Cl)c2C)n(Cc2ccc(F)c(Cl)c2)c1=O` [Compound I-0971], the IC50 fell in the range of 100 to 500 nM. `Cc1nc2ccc(Nc3nc(=O)c(F)cn3Cc3cc(F)cc(F)c3)c(C)c2s1` [Compound I-1198]: the IC50 was below 10 nM.

In the case of `CCOc1cn(Cc2ccc(F)c(Cl)c2)c(Nc2cc(C)c(OC)cc2C)nc1=O` [Compound I-0714], the concentration for half-maximal inhibition (IC50) was below 10 nM. In the case of `COc1cn(Cc2ccc(F)c(F)c2)c(Nc2cc3ncccc3cc2C)nc1=O` [Compound I-0772], the IC50 lay in the range of 10 to 100 nM. For `COc1cn(Cc2ccc(F)cc2)c(Nc2cccc(C)c2Cl)nc1=O` [Compound I-0662], the half-inhibitory concentration (IC50) is 10 to 100 nM. For the compound `COc1cn(Cc2cc(F)cc(F)c2)c(Nc2ccc3nc(C)sc3c2C)nc1=O` [Compound I-0860], the concentration for half-maximal inhibition (IC50) lay within 10 to 100 nM. `Cc1nc2[nH]ccc2cc1Nc1nc(=O)c(F)cn1Cc1ccc(F)c(F)c1` [Compound I-1090]: the IC50 was 10 to 100 nM. Consider `CCc1cc(Br)ccc1Nc1nc(=O)c(OC)cn1Cc1cc(F)cc(Cl)c1` [Compound I-0656], for which the IC50 lay in the range of 10 to 100 nM. For `COc1cc(Nc2nc(=O)ccn2Cc2ccc(F)c(Cl)c2)c(C)c(OC)c1` [Compound I-1166], the IC50 is below 10 nM. In the case of `COc1cn(Cc2cc(F)cc(Cl)c2)c(Nc2cc(-c3nnco3)ccc2C)nc1=O` [Compound I-0667], the IC50 lay within 10 to 100 nM. Turning to `Cc1ccc(CO)cc1Nc1nc(=O)c(C)nn1Cc1cc(F)c(F)c(F)c1` [Compound I-1254], the half-inhibitory concentration (IC50) was below 10 nM. On the same count and under the same terms, to `COc1cn(Cc2cc(F)cc(Cl)c2)c(Nc2ccc(N3CCOCC3)cc2C)nc1=O` [Compound I-0612] belongs 100 to 500 nM.

As for `Cc1cc2cc(Nc3nc(=O)c(F)cn3Cc3ccc(F)c(F)c3)c(C)cc2[nH]1` [Compound I-1056], the half-inhibitory concentration (IC50) was in the range of 10 to 100 nM. Regarding `Cc1ccc(Cl)cc1Nc1nc(=O)c(F)cn1Cc1cc(F)c(F)c(F)c1` [Compound I-1209], the IC50 is below 10 nM. Still for that read-out and setting: the value for `CCc1cc(F)ccc1Nc1nc(=O)c(F)cn1Cc1cc(F)c(F)c(F)c1` [Compound I-1208] was below 10 nM. Take `COc1cn(Cc2ccccc2)c(Nc2cccc(C)c2F)nc1=O` [Compound I-0762]: the half-inhibitory concentration (IC50) fell in the range of 100 to 500 nM.

Turning to `C#Cc1cc(Nc2nc(=O)c(OC)cn2Cc2cc(F)cc(F)c2)c(C)cc1F` [Compound I-0915], the half-maximal inhibitory concentration (IC50) was in the range of 10 to 100 nM. Consider `COCCn1ccc2c(C)c(Nc3nc(=O)c(F)cn3Cc3cc(F)cc(F)c3)ccc21` [Compound I-1229], for which the half-inhibitory concentration (IC50) is below 10 nM. In the case of `COc1cn(Cc2ccc(F)c(Cl)c2)c(Nc2cc(OC3CC3)ccc2C)nc1=O` [Compound I-0889], the IC50 was below 10 nM. In the case of `CCc1ccccc1Nc1nc(=O)c(OC)cn1Cc1ccc(F)c(F)c1` [Compound I-0674], the IC50 fell in the range of 10 to 100 nM. Turning to `COc1cn(Cc2ccccc2)c(Nc2cc3ncccc3cc2C)nc1=O` [Compound I-0770], the half-maximal inhibitory concentration (IC50) fell in the range of 100 to 500 nM. Take `COCc1cc(=O)nc(Nc2cc(OC)c(OC)cc2C)n1Cc1cc(F)cc(F)c1` [Compound I-1142]: the IC50 is 10 to 100 nM. `Cc1cc2c(cc1Nc1nc(=O)c(F)cn1Cc1cc(F)cc(F)c1)CCO2` [Compound I-1001]: the concentration for half-maximal inhibition (IC50) is below 10 nM.

For the compound `COc1ccc(Nc2nc(=O)cnn2Cc2ccc(F)c(F)c2)c(C)c1` [Compound I-1272], the concentration for half-maximal inhibition (IC50) was below 10 nM. Take `COc1cn(Cc2ccc(F)c(Cl)c2)c(Nc2cc(F)c(Cl)cc2C)nc1=O` [Compound I-0887]: the IC50 was 10 to 100 nM.

For the compound `Cc1cc(Nc2nc(=O)ccn2Cc2cc(F)c(F)c(F)c2)c2cc[nH]c2c1` [Compound I-1161], the IC50 was below 10 nM. In the case of `Cc1c(Nc2nc(=O)ccn2Cc2ccc(F)c(Cl)c2)ccc2[nH]ccc12` [Compound I-1170], the IC50 is below 10 nM.

For the origin of these results see patent US10774051B2, “6-membered heterocyclic derivatives and pharmaceutical composition comprising the same” (Shionogi & Co., Ltd., priority 2015, dated 2020).
